Test results published in patent US20240423969A1, “SYNERGISTIC DRUG COMBINATIONS TO TREAT CANCER” (Mayo Foundation for Medical Education and Research, priority 2023, published 2024).

system: HCC cell lines (HLE, HLF, and PLC/PRF5); test: Cell proliferation assay, three HCC cell lines; format: cell-based; conditions: Homo sapiens, PLC-PRF-5, single agent, range over HLE, 96 hours, read-out: IC50 (concentration that inhibits proliferation of 50% cells)
Experimental: HCC cell lines (3×10^5 cells) were suspended in a 10 mL culture medium and seeded onto 96-well black plates at 100 μL per well (Corning Incorporated, Corning, NY, USA). The next day, SSI-4, cabozantinib, and/or lenvatinib were added in concentrations ranging from 120 μM to 0.1 nM and incubated with cells for 96 hours. After incubation times, the media was discarded, and cells were washed with 100 μL PBS, dried, and placed at −80° C. for at least 30 minutes. Next, a CyQUANT® Cell Proliferation Assay (Thermo Fisher, Waltham, MA) was used for quantifying cells and for assessing cell proliferation and cytotoxicity following manufacturer protocol. For 3D cell culture, the cell viability was analyzed using CellTiter-Glo® 3D Cell Viability Assay (Promega, Madison, WI), and relative luminescence units (RLU) were measured. Based, on the fluorescence or luminescence values, the percentage of cell proliferation inhibition and half-maximal inhibitory concentration (IC50) was determined using the GraphPad Prism (Dotmatics, San Diego, CA). The resulting combination index (CI) data based on the median effect principle proposed by Chou and Talalay was generated using CalcuSyn Software Version 2.0 (Biosoft). At least 3 independent experiments were performed.
Three HCC cell lines (HLE, HLF, and PLC/PRF5) were tested and the concentration that inhibits proliferation of 50% cells (IC50) was determined. […]

Compound | IC50 [µM]
COc1cc2nccc(Oc3ccc(NC(=O)C4(C(=O)Nc5ccc(F)cc5)CC4)cc3)c2cc1OC [cabozantinib] | 19 to 72
CNC(=O)c1ccnc(NC(=O)N2CCC(Oc3ccccc3Cl)CC2)c1 [SSI-4, 2-{[4-(2-Chlorophenoxy)piperidine-1-carbonyl]amino}-N-methylpyridine-4-carboxamide] | 0.001 to 0.019
COc1cc2nccc(Oc3ccc(NC(=O)NC4CC4)c(Cl)c3)c2cc1C(N)=O [lenvatinib] | 11 to 24
